Assay results taken from patent US20250346592A1 (Celgene Corporation, priority 2022, published 2025).

molecular target: hPAD4 enzyme (Homo sapiens (Human), UniProt Q9UM07); assay: RFMS2 assay (RapidFire mass spectrometry, TSTGGRQGSHH peptide substrate); assay type: biochemical; settings: 35 nM recombinant human PAD4, 500 μM TSTGGRQGSHH peptide, 30 minutes at room temperature; read-out: RFMS 2 IC50
Method in brief: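 IC50 derived from RapidFire LC-MS/MS (positive ESI MRM) of substrate versus product after a 30 min room-temperature reaction stopped with 10% formic acid. Reaction contained 35 nM human PAD4, 500 μM peptide, 2 mM CaCl2, 5 mM DTT at pH 7.4, and compounds diluted 3-fold from 20 μM.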

Chain of hPAD4 enzyme (Q9UM07 whole entry): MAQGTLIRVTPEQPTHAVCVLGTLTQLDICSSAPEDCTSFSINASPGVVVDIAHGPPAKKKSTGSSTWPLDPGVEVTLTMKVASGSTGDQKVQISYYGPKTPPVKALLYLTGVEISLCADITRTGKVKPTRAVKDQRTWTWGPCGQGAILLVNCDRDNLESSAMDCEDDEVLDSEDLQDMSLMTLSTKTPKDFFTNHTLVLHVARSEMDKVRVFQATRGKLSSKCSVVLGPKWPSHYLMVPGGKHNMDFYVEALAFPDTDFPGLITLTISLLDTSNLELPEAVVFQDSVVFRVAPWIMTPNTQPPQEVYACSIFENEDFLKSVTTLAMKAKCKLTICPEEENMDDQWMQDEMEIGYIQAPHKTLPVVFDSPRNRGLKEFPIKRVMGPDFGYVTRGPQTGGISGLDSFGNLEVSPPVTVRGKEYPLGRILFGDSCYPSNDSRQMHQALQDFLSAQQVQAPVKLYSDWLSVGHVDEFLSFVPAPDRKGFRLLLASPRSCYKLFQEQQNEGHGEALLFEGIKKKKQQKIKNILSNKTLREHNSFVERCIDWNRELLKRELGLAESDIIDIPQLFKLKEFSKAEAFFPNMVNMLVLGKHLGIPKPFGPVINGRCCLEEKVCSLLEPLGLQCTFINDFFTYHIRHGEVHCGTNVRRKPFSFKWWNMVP

IC50 [µM]	Structure (SMILES)
> 1	C[C@@H](N)CN1CCc2cc3c(cc2C1=O)nc(-c1cc2ccccc2n1CC(C)(C)O)n3C [Example 92, (R)-6-(2-aminopropyl)-2-(1-(2-hydroxy-2-methylpropyl)-1H-indol-2-yl)-1-methyl-1,6,7,8-tetrahydro-5H-imidazo[4,5-g]isoquinolin-5-one]
0.101 to 0.5	Cn1c(-c2cc3ccccc3n2Cc2ccno2)nc2cc3c(cc21)CCN(C[C@H](N)CF)C3=O [Example 93, (S)-6-(2-amino-3-fluoropropyl)-2-(1-(isoxazol-5-ylmethyl)-1H-indol-2-yl)-1-methyl-1,6,7,8-tetrahydro-5H-imidazo[4,5-g]isoquinolin-5-one]
0.501 to 1	COCCn1c(-c2nc3cc4c(cc3n2C)CCN(C[C@H](N)CF)C4=O)cc2ccccc21 [Example 94, (S)-6-(2-amino-3-fluoropropyl)-2-(1-(2-methoxyethyl)-1H-indol-2-yl)-1-methyl-1,6,7,8-tetrahydro-5H-imidazo[4,5-g]isoquinolin-5-one]
0.501 to 1	Cn1cc(Cn2c(-c3nc4cc5c(cc4n3C)CCN(C[C@H](N)CF)C5=O)cc3ccccc32)cn1 [Example 95, (S)-6-(2-amino-3-fluoropropyl)-1-methyl-2-(1-((1-methyl-1H-pyrazol-4-yl)methyl)-1H-indol-2-yl)-1,6,7,8-tetrahydro-5H-imidazo[4,5-g]isoquinolin-5-one]
> 1	Cn1nccc1Cn1c(-c2nc3cc4c(cc3n2C)CCN(C[C@H](N)CF)C4=O)cc2ccccc21 [Example 96, (S)-6-(2-amino-3-fluoropropyl)-1-methyl-2-(1-((1-methyl-1H-pyrazol-5-yl)methyl)-1H-indol-2-yl)-1,6,7,8-tetrahydro-5H-imidazo[4,5-g]isoquinolin-5-one]
0.101 to 0.5	Cc1cc(Cn2c(-c3nc4cc5c(cc4n3C)CCN(C[C@H](N)CF)C5=O)cc3ccccc32)on1 [Example 97, (S)-6-(2-amino-3-fluoropropyl)-1-methyl-2-(1-((3-methylisoxazol-5-yl)methyl)-1H-indol-2-yl)-1,6,7,8-tetrahydro-5H-imidazo[4,5-g]isoquinolin-5-one]
> 1	Cn1c(-c2cc3ccccc3n2Cc2ccon2)nc2cc3c(cc21)CCN(C[C@H](N)CF)C3=O [Example 98, (S)-6-(2-amino-3-fluoropropyl)-2-(1-(isoxazol-3-ylmethyl)-1H-indol-2-yl)-1-methyl-1,6,7,8-tetrahydro-5H-imidazo[4,5-g]isoquinolin-5-one]
> 1	Cc1nnc(Cn2c(-c3nc4cc5c(cc4n3C)CCN(C[C@H](N)CF)C5=O)cc3ccccc32)o1 [Example 99, (S)-6-(2-amino-3-fluoropropyl)-1-methyl-2-(1-((5-methyl-1,3,4-oxadiazol-2-yl)methyl)-1H-indol-2-yl)-1,6,7,8-tetrahydro-5H-imidazo[4,5-g]isoquinolin-5-one]
> 1	Cc1cc(Cn2c(-c3nc4cc5c(cc4n3C)CCN(C[C@H](N)CF)C5=O)cc3ccccc32)no1 [Example 100, (S)-6-(2-amino-3-fluoropropyl)-1-methyl-2-(1-((5-methylisoxazol-3-yl)methyl)-1H-indol-2-yl)-1,6,7,8-tetrahydro-5H-imidazo[4,5-g]isoquinolin-5-one]
0.101 to 0.5	Cn1c(-c2cc3ccccc3n2CC2CCC2)nc2cc3c(cc21)CCN(C[C@H](N)CF)C3=O [Example 101, (S)-6-(2-amino-3-fluoropropyl)-2-(1-(cyclobutylmethyl)-1H-indol-2-yl)-1-methyl-1,6,7,8-tetrahydro-5H-imidazo[4,5-g]isoquinolin-5-one]
0.501 to 1	COCCn1c(-c2nc3cc4c(cc3n2C)CCN(C[C@H](N)CF)C4=O)cc2ccc(OC)cc21 [Example 103, (S)-6-(2-amino-3-fluoropropyl)-2-(6-methoxy-1-(2-methoxyethyl)-1H-indol-2-yl)-1-methyl-1,6,7,8-tetrahydro-5H-imidazo[4,5-g]isoquinolin-5-one]
0.501 to 1	COCCn1c(-c2nc3cc4c(cc3n2C)CCN(C[C@H](N)CF)C4=O)cc2ccc(Cl)nc21 [Example 104, (S)-6-(2-amino-3-fluoropropyl)-2-(6-chloro-1-(2-methoxyethyl)-1H-pyrrolo[2,3-b]pyridin-2-yl)-1-methyl-1,6,7,8-tetrahydro-5H-imidazo[4,5-g]isoquinolin-5-one]
> 1	COCCn1c(-c2nc3cc4c(cc3n2C)CCN(C[C@H](N)CF)C4=O)cc2ccc(OC)nc21 [Example 105, (S)-6-(2-amino-3-fluoropropyl)-2-(6-methoxy-1-(2-methoxyethyl)-1H-pyrrolo[2,3-b]pyridin-2-yl)-1-methyl-1,6,7,8-tetrahydro-5H-imidazo[4,5-g]isoquinolin-5-one]
> 1	COCCn1c(-c2nc3cc4c(cc3n2C)CCN(C[C@H](N)CF)C4=O)cc2cccnc21 [Example 106, (S)-6-(2-amino-3-fluoropropyl)-2-(1-(2-methoxyethyl)-1H-pyrrolo[2,3-b]pyridin-2-yl)-1-methyl-1,6,7,8-tetrahydro-5H-imidazo[4,5-g]isoquinolin-5-one]
0.501 to 1	CCn1c(-c2nc3cc4c(cc3n2C)CCN(C[C@H](N)CF)C4=O)cc2cccc(OC)c21 [Example 107, (S)-6-(2-amino-3-fluoropropyl)-2-(1-ethyl-7-methoxy-1H-indol-2-yl)-1-methyl-1,6,7,8-tetrahydro-5H-imidazo[4,5-g]isoquinolin-5-one]
0.501 to 1	CCn1c(-c2nc3cc4c(cc3n2C)CCN(C[C@H](N)CF)C4=O)cc2ccc(OC)nc21 [Example 108, (S)-6-(2-amino-3-fluoropropyl)-2-(1-ethyl-6-methoxy-1H-pyrrolo[2,3-b]pyridin-2-yl)-1-methyl-1,6,7,8-tetrahydro-5H-imidazo[4,5-g]isoquinolin-5-one]
> 1	COc1cccc2cc(-c3nc4cc5c(cc4n3C)CCN(C[C@H](N)CF)C5=O)n(C(C)C)c12 [Example 109]
> 1	COCCn1c(-c2nc3cc4c(cc3n2C)CCN(C[C@H](N)CF)C4=O)cc2ccnc(OC)c21 [Example 110, (S)-6-(2-amino-3-fluoropropyl)-2-(7-methoxy-1-(2-methoxyethyl)-1H-pyrrolo[2,3-c]pyridin-2-yl)-1-methyl-1,6,7,8-tetrahydro-5H-imidazo[4,5-g]isoquinolin-5-one]
0.011 to 0.1	COc1cccc2cc(-c3nc4cc5c(cc4n3C)CCN(C[C@H](N)CF)C5=O)n(Cc3ccno3)c12 [Example 111, (S)-6-(2-amino-3-fluoropropyl)-2-(1-(isoxazol-5-ylmethyl)-7-methoxy-1H-indol-2-yl)-1-methyl-1,6,7,8-tetrahydro-5H-imidazo[4,5-g]isoquinolin-5-one]
0.101 to 0.5	COc1ccc2cc(-c3nc4cc5c(cc4n3C)CCN(C[C@H](N)CF)C5=O)n(Cc3ccno3)c2c1 [Example 112, (S)-6-(2-amino-3-fluoropropyl)-2-(1-(isoxazol-5-ylmethyl)-6-methoxy-1H-indol-2-yl)-1-methyl-1,6,7,8-tetrahydro-5H-imidazo[4,5-g]isoquinolin-5-one]
0.501 to 1	COc1cccc2cc(-c3nc4cc5c(cc4n3C)CCN(C[C@H](N)CF)C5=O)n(Cc3cn(C)cn3)c12 [Example 114, (S)-6-(2-amino-3-fluoropropyl)-2-(7-methoxy-1-((1-methyl-1H-imidazol-4-yl)methyl)-1H-indol-2-yl)-1-methyl-1,6,7,8-tetrahydro-5H-imidazo[4,5-g]isoquinolin-5-one]
0.101 to 0.5	COc1cccc2cc(-c3nc4cc5c(cc4n3C)CCN(C[C@H](N)CF)C5=O)n(Cc3cc[nH]n3)c12 [Example 115, (S)-2-(1-((1H-pyrazol-3-yl)methyl)-7-methoxy-1H-indol-2-yl)-6-(2-amino-3-fluoropropyl)-1-methyl-1,6,7,8-tetrahydro-5H-imidazo[4,5-g]isoquinolin-5-one]
0.101 to 0.5	COc1cccc2cc(-c3nc4cc5c(cc4n3C)CCN(C[C@H](N)CF)C5=O)n(Cc3nnco3)c12 [Example 116, (S)-2-(1-((1,3,4-oxadiazol-2-yl)methyl)-7-methoxy-1H-indol-2-yl)-6-(2-amino-3-fluoropropyl)-1-methyl-1,6,7,8-tetrahydro-5H-imidazo[4,5-g]isoquinolin-5-one]
0.101 to 0.5	COc1cccc2cc(-c3nc4cc5c(cc4n3C)CCN(C[C@H](N)CF)C5=O)n(Cc3cnco3)c12 [Example 117, (S)-6-(2-amino-3-fluoropropyl)-2-(7-methoxy-1-(oxazol-5-ylmethyl)-1H-indol-2-yl)-1-methyl-1,6,7,8-tetrahydro-5H-imidazo[4,5-g]isoquinolin-5-one]
0.011 to 0.1	COc1cccc2cc(-c3nc4cc5c(cc4n3C)CCN(C[C@H](N)CF)C5=O)n(Cc3ccns3)c12 [Example 118, (S)-6-(2-amino-3-fluoropropyl)-2-(1-(isothiazol-5-ylmethyl)-7-methoxy-1H-indol-2-yl)-1-methyl-1,6,7,8-tetrahydro-5H-imidazo[4,5-g]isoquinolin-5-one]
0.101 to 0.5	COc1cccc2cc(-c3nc4cc5c(cc4n3C)CCN(C[C@H](N)CF)C5=O)n(Cc3ncno3)c12 [Example 120, (S)-2-(1-((1,2,4-oxadiazol-5-yl)methyl)-7-methoxy-1H-indol-2-yl)-6-(2-amino-3-fluoropropyl)-1-methyl-1,6,7,8-tetrahydro-5H-imidazo[4,5-g]isoquinolin-5-one]
> 1	Cn1c(-c2cc3cccnc3n2Cc2ccno2)nc2cc3c(cc21)CCN(C[C@H](N)CF)C3=O [Example 121, (S)-6-(2-amino-3-fluoropropyl)-2-(1-(isoxazol-5-ylmethyl)-1H-pyrrolo[2,3-b]pyridin-2-yl)-1-methyl-1,6,7,8-tetrahydro-5H-imidazo[4,5-g]isoquinolin-5-one]
0.101 to 0.5	COc1cccc2cc(-c3nc4cc5c(cc4n3C)CCN(C[C@H](N)CF)C5=O)n(Cc3ncc(C)o3)c12 [Example 125, (S)-6-(2-amino-3-fluoropropyl)-2-(7-methoxy-1-((5-methyloxazol-2-yl)methyl)-1H-indol-2-yl)-1-methyl-1,6,7,8-tetrahydro-5H-imidazo[4,5-g]isoquinolin-5-one]
